“Also recorded” adds a separate entry of the source.
Test system: human CD34+ cells
Test: Expansion of CD34+ cells into MKPs in serum-free culture
Format: cell-based
Settings: 60 ng/ml IL-9 with TPO mimetic and IL-1, 8 days, 3 donors
From the text: Isolation of human CD34^+ cells. G-CSF mobilized peripheral blood was harvested from healthy donors via leukapheresis (see, e.g., Kawamoto et al. (2009) Stem Cells 27:2857). CD34+ cells were positively selected using magnetic beads (Dynal, Lake Success, N.Y.) linked to anti-CD34 monoclonal antibody on an Isolex Device (Baxter, Deerfield, Ill.). […] Aliquots of 15-20×10^6 cells/ml were cryopreserved until use.
Expansion of CD34^+ cells. CD34^+ cells from donors were thawed, pooled as indicated, and seeded at 5×10^5 cells/ml in serum-free X-vivo 15 medium (Lonza, Walkersville, Md.) supplemented with IX GlutaMAX (Invitrogen, Carlsbad, Calif.). Cytokines were added as follows. […] Cultures were incubated at 37° C. in a humidified atmosphere containing 5% carbon dioxide. Viable cells were counted daily and cell concentration was readjusted to about 5×10^5 cells/ml by the addition of fresh medium with cytokines.
Analysis of MKPs. Cell surface marker expression was analyzed by flow cytometry using CD15b, CD33, CD34, CD41, CD42a, CD90, and CD184 antibodies. Prior to antibody staining, cells were washed with HBSS containing 2% BSA and blocked with rat and mouse IgG (SouthernBiotech, Birmingham, AL) for 10 minutes at 4° C. […]

With “IL-9: interleukin-9 cytokine, also known as megakaryoblast growth factor” the “effect on number of MKPs” value was “increased the number of MKPs from all 3 donors; also recorded: increases the size of all populations”.

From patent publication US20140205582A1, “MEGAKARYOCYTE PROGENITOR CELLS FOR PRODUCTION OF PLATELETS” (CELLERANT THERAPEUTICS, INC., priority 2011, published 2014)
